These results are taken from patent US11970474B2, “Substituted benzodiazoles and use thereof in therapy” (THOMAS HELLEDAYS STIFTELSE FÖR MEDICINSK FORSKNING, priority 2018, dated 2024).

For one assay, the target named is OGG1 (Homo sapiens (Human), UniProt O15527). Description: In vitro OGG1 activity assay. In kind it is biochemical. The following applies: 800 pM OGG1 enzyme, 2 nM human APEX1, 10 nM 8-oxoA:C substrate. The procedure, abridged:
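Read-out is fluorescein fluorescence, with compounds in DMSO added first, then enzyme and substrate. OGG1 excises its substrate base from a quenched fluorophore-labelled duplex, and surplus APEX1 cuts the resulting apurinic site. The duplex then melts and fluorescence rises in proportion to glycosylase activity.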

In another assay the test system is MLE12 cells. Description: Cell viability assay in MLE12 cells (resazurin). In kind it is cell-based, mouse. The settings on record: Mus musculus, MLE12, 24 h, TNF-α 20 ng/ml, resazurin added after 24 hours culture. Here is the method: (§1) Stock solutions (10 mM in DMSO) of compounds were dispensed in V-bottom 384-well plates and the following dilutions were prepared: 10 mM and 0.05 mM. The dilutions were transferred to the source plate. Duplicate 6 points dose-response curves of compounds were nano-dispensed in cell plates (CCL2 assay) and in parallel, 11 points DR curves in duplicates were nano-dispensed for the viability assay. The plates were heat sealed and kept at RT until use.
(§2) MLE12 cells in flasks were washed once with PBS, detached with Trypsin/EDTA, resuspended in fresh medium and counted. Cells were diluted to 3×10^5 cells/ml and seeded with Multidrop Combi in cell plates pre-dispensed with compounds, 25 μl/well (7500 cells/well). The plates were placed, one by one, in a CO2-incubator at 37° C. for 1 hour after which 25 μl/well of TNF-α (final concentration 20 ng/ml) were added. The plates were transferred back to the CO2-incubator placed in a plastic box with wet tissue in the bottom, to avoid evaporation, for 30 hours.
After 24 hours culture, resazurin reagent (stock 1 mg/ml in PBS) diluted 1:17 in PBS was added with Multidrop Combi, 10 μl/well, and plates were incubated for 6 hours. Plates were read in Sense plate reader with resorufin protocol (ex544 nm/em595 nm). The results were imported to an excel template where the EC50 values were calculated using XLfit.
In general terms: The colour change of resazurin is a common sign of viable cells or microbes.

Another assay relates to CCL2. Description: Mouse CCL2 assay in MLE12 cells. In kind it is cell-based. The following applies: Mus musculus, MLE12, 30 h, MLE12 cells; TNF-α 20 ng/ml; supernatant after 30 hours; HTRF; read-out: CCL2 (EC50).
Description: Cisbio mouse CCL2 assay is intended for the quantitative measurement of CCL2 in supernatant using HTRF® technology. The assay is compatible with mouse samples, and is highly specific for CCL2. CCL2 is detected in a sandwich assay format using 2 different specific antibodies, one labeled with Cryptate (donor) and the second with d2 (acceptor). The detection principle is based on HTRF® technology. When the labelled antibodies bind to the same antigen, the excitation of the donor with a light source (laser or flash lamp) triggers a Fluorescence Resonance Energy Transfer (FRET) towards the acceptor, which in turn fluoresces at a specific wavelength (665 nm). The two antibodies bind to the CCL2 present in the sample, thereby generating FRET. Signal intensity is proportional to the number of antigen-antibody complexes formed and therefore to the CCL2 concentration. • Materials: • Cells: MLE12 (Mouse Lung Epithelial cells, SV40 transformed) • Medium: DMEM/F12 (Gibco #11330057), FBS 5% (Gibco #10500064), Pen/Strep 50 U/50 μg/ml (Gibco #15070063) • Cell plates: 384-well, black/clear, TC-treated (Corning #3764) • Source plate: Labcyte LDV 384 (Labcyte #LP-0200) • Compound dilution plate: V-bottom 384-well PP plate (Greiner #781280) • Compounds: 10 mM stocks in DMSO • HTRF plates: 384-well, white, half area, non-binding (Costar #3824) • Mouse CCL2 kit: Cisbio 62MCCL2PEH • Other reagents: Trypsin/EDTA 10× (Gibco #15400054), PBS (Gibco #14190169), Resazurin (Sigma-Aldrich #199303), 1 mg/ml in PBS, TNF-α 200 μg/ml in PBS (Peprotech #300-01A) • Instruments: • Echo liquid handler (Labcyte) • Multidrop Combi (Thermo Scientific) • Sense plate reader (Hidex) Compound Handling:
as §1, §2
After 30 hours incubation, the plates were spun down 5 minutes at 400 g, and 16 μl/well of the supernatants were transferred to the assay plate. A mCCL2 standard curve was prepared according to the kit protocol and 16 μl/well of the standards were also added to the assay plate.
The anti-CCL2 antibody mix was prepared according to the kit protocol, and 4 μl/well were added to the assay plate. The plate was sealed and incubated over night at RT. After incubation the plate was read in Sense plate reader with Time-resolved FRET protocol (Ex330 nm/Em 620 and 665 nm). After data reduction, the delta ratios were imported to an excel template where the IC50 values were calculated.
For orientation: TR-FRET usually uses a lanthanide donor and a delayed reading to cut background.

A word on the IC50: it is the concentration needed to halve the response being measured. Lower therefore signals greater potency in that assay. Usually EC50 stands for the concentration giving half of the maximal effect.

Sequence of OGG1 (O15527 whole entry): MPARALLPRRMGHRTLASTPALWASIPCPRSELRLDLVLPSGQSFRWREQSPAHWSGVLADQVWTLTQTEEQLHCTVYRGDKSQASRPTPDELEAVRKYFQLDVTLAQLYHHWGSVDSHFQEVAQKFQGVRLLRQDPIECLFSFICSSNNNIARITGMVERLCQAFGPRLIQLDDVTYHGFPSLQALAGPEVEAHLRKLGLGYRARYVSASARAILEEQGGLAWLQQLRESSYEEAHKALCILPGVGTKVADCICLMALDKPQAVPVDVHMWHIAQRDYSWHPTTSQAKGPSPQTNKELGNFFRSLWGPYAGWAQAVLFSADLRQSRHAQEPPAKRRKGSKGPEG

As for `COc1cc(NC(=O)[C@H]2CC[C@@H](n3c(=O)[nH]c4c(OC5CCNCC5)cccc43)CC2)ccc1C` [Example 307, Cis-N-(3-methoxy-4-methylphenyl)-4-[2-oxo-4-(piperidin-4-yloxy)-2,3-dihydro-1H-1,3-benzodiazol-1-yl]cyclohexane-1-carboxamide], the IC50 was 0.0125 µM against OGG1 and 28.8 µM in the assay on MLE12 cells. For the same molecule, the EC50 in the assay on CCL2 is 32 µM.

In the case of `COc1cc(NC(=O)[C@H]2CC[C@@H](n3c(=O)[nH]c4c(S)cccc43)CC2)ccc1C` [Example 237, Cis-N-(3-methoxy-4-methylphenyl)-4-(2-oxo-4-sulfanyl-2,3-dihydro-1H-1,3-benzodiazol-1-yl)cyclohexane-1-carboxamide], the results for the IC50 against OGG1 and in the assay on MLE12 cells were 0.0671 µM and 4.54 µM, respectively. For the same molecule, in the assay on CCL2, the EC50 came to 31.7 µM.

`Cc1ccc(NC(=O)[C@H]2CC[C@@H](n3c(=O)[nH]c4c(Br)cccc43)CC2)cc1O` [Example 221, Cis-4-(4-bromo-2-oxo-2,3-dihydro-1H-1,3-benzodiazol-1-yl)-N-(3-hydroxy-4-methylphenyl)cyclohexane-1-carboxamide]: the IC50 on OGG1 was 0.0272 µM; in the assay with MLE12 cells, 7.84 µM. Besides, the EC50 in the assay with CCL2 came out at 15.2 µM.

For the molecule `COc1cc(NC(=O)[C@H]2CC[C@@H](n3c(=O)[nH]c4cc(C#N)ccc43)CC2)ccc1C` [Example 238, Cis-4-(5-cyano-2-oxo-2,3-dihydro-1H-1,3-benzodiazol-1-yl)-N-(3-methoxy-4-methylphenyl)cyclohexane-1-carboxamide], the IC50 amounted to 0.0409 µM against OGG1 and 9.18 µM with MLE12 cells. In addition, the EC50 in the assay with CCL2 turned out to be 27.1 µM.

Regarding `O=c1[nH]c2c(Br)cccc2n1[C@H]1CC[C@@H](C(=O)Nc2ccc3c(c2)OCO3)CC1` [Example 166, (Cis)-N-(2H-1,3-benzodioxol-5-yl)-4-(4-bromo-2-oxo-2,3-dihydro-1H-1,3-benzodiazol-1-yl)cyclohexane-1-carboxamide], the IC50 against OGG1 is 0.041 µM; in the assay with MLE12 cells, 16.4 µM. Moreover, the EC50 in the assay on CCL2 amounted to 42.7 µM.

Regarding `COc1cc(NC(=O)[C@H]2CC[C@@H](n3c(=O)[nH]c4c(C(=O)N5CCNC(C(F)(F)F)C5)cccc43)CC2)ccc1C` (stereo partly drawn) [Example 274, Cis-N-(3-methoxy-4-methylphenyl)-4-{2-oxo-4-[3-(trifluoromethyl)piperazine-1-carbonyl]-2,3-dihydro-1H-1,3-benzodiazol-1-yl}cyclohexane-1-carboxamide], the IC50 on OGG1 turned out to be 0.0921 µM; with MLE12 cells, 18.1 µM. In the assay with CCL2, the EC50 is 39 µM.

As for `CNCCN(C)c1cccc2c1[nH]c(=O)n2[C@H]1CC[C@@H](C(=O)Nc2ccc(C)c(OC)c2)CC1` [Example 297, Cis-N-(3-methoxy-4-methylphenyl)-4-(4-{methyl[2-(methylamino)ethyl]amino}-2-oxo-2,3-dihydro-1H-1,3-benzodiazol-1-yl)cyclohexane-1-carboxamide], the IC50 was 0.00807 µM at OGG1 and 28.9 µM in the assay with MLE12 cells. Further, the EC50 with CCL2 is 30.8 µM.

Take `O=c1[nH]c2c(Cl)cccc2n1[C@H]1CC[C@@H](C(=O)Nc2ccc(Cl)cc2)CC1` [Example 150, (Cis)-4-(4-chloro-2-oxo-2,3-dihydro-1H-1,3-benzodiazol-1-yl)-N-(4-chlorophenyl)cyclohexane-1-carboxamide]: the values for the IC50 at OGG1 and with MLE12 cells were 0.106 µM and 7.58 µM, respectively. Also, the EC50 in the assay with CCL2 is 18.7 µM.

With `COc1cc(NC(=O)[C@H]2CC[C@@H](n3c(=O)[nH]c4c(C(=O)N5CC[C@@H](N(C)C)C5)cccc43)CC2)ccc1C` [Example 267, Cis-4-{4-[(3R)-3-(dimethylamino)pyrrolidine-1-carbonyl]-2-oxo-2,3-dihydro-1H-1,3-benzodiazol-1-yl}-N-(3-methoxy-4-methylphenyl)cyclohexane-1-carboxamide], the IC50 against OGG1 amounted to 0.0824 µM; in the assay on MLE12 cells, 17.9 µM. Besides, in the assay with CCL2, the EC50 is 34.1 µM.

For `O=C(Nc1ccc(Cl)c(Cl)c1)N1CCC(n2c(=O)[nH]c3c(Br)cccc32)CC1` [Example 27, 4-(4-Bromo-2-oxo-2,3-dihydro-1H-1,3-benzodiazol-1-yl)-N-(3,4-dichlorophenyl)piperidine-1-carboxamide], the IC50 against OGG1 stood at 0.488 µM; in the assay with MLE12 cells, 7.74 µM. In the assay on CCL2, the EC50 was 16.3 µM.

As to `COc1cc(NC(=O)N2C3CCC2CC(n2c(=O)[nH]c4c(-c5ccc(CO)nc5)cccc42)C3)ccc1C` (stereo not drawn) [Example 92, 3-{4-[6-(Hydroxymethyl)pyridin-3-yl]-2-oxo-2,3-dihydro-1H-1,3-benzodiazol-1-yl}-N-(3-methoxy-4-methylphenyl)-(endo)-8-azabicyclo[3.2.1]octane-8-carboxamide], the IC50 at OGG1 was 0.084 µM; in the assay with MLE12 cells, 13.7 µM. Besides, the EC50 with CCL2 came out at 38.8 µM.

As for `COc1cc(NC(=O)N2CCC(n3c(=O)[nH]c4c(-n5cccn5)cccc43)CC2)ccc1C` [Example 117, N-(3-methoxy-4-methylphenyl)-4-[2-oxo-4-(1H-pyrazol-1-yl)-2,3-dihydro-1H-1,3-benzodiazol-1-yl]piperidine-1-carboxamide], the IC50 against OGG1 was determined as 1.36 µM; in the assay on MLE12 cells, 14.4 µM. Also, the EC50 in the assay with CCL2 is 65.2 µM.

`COC(=O)c1cc(NC(=O)[C@H]2CC[C@@H](n3c(=O)[nH]c4c(Br)cccc43)CC2)ccc1OC` [Example 151, Methyl 2-methoxy-5-[(cis)-4-(4-bromo-2-oxo-2,3-dihydro-1H-1,3-benzodiazol-1-yl)cyclohexaneamido]benzoate]: the IC50 against OGG1 turned out to be 0.526 µM; with MLE12 cells it was 17.1 µM. For the same molecule, the EC50 in the assay with CCL2 came out at 5.25 µM.

As to `COc1cccc2c1[nH]c(=O)n2[C@H]1CC[C@@H](C(=O)Nc2ccc3cc[nH]c3c2)CC1` [Example 209, Cis-N-(1H-indol-6-yl)-4-(4-methoxy-2-oxo-2,3-dihydro-1H-1,3-benzodiazol-1-yl)cyclohexane-1-carboxamide], the IC50 on OGG1 was found to be 0.402 µM; with MLE12 cells it was 21.5 µM. In addition, in the assay on CCL2, the EC50 is 34.9 µM.

In the case of `Cc1cc(NC(=O)[C@H]2CC[C@@H](n3c(=O)[nH]c4c(Br)cccc43)CC2)ccc1O` [Example 194, Cis-4-(4-bromo-2-oxo-2,3-dihydro-1H-1,3-benzodiazol-1-yl)-N-(4-hydroxy-3-methylphenyl)cyclohexane-1-carboxamide], the IC50 was 0.0172 µM against OGG1 and 15.6 µM in the assay on MLE12 cells. Further, the 50% effective concentration (EC50) with CCL2 is 33.5 µM.

Turning to `COc1cc(NC(=O)[C@H]2CC[C@@H](n3c(=O)[nH]c4c(C5=CCNCC5)cccc43)CC2)ccc1C` [Example 311, Cis-N-(3-methoxy-4-methylphenyl)-4-[2-oxo-4-(1,2,3,6-tetrahydropyridin-4-yl)-2,3-dihydro-1H-1,3-benzodiazol-1-yl]cyclohexane-1-carboxamide], the IC50 was 0.00449 µM at OGG1 and 13.8 µM in the assay with MLE12 cells. In addition, in the assay with CCL2, the EC50 was 14.5 µM.
